This note sets out measurements from PubChem BioAssay (NCI).

Molecules are shown by their SMILES.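 Interpolation was linear, between the two tested concentrations surrounding the appropriate level; five concentrations were tested over 48 hours in 96-well plates. GI50: concentration for 50% inhibition of growth. At the TGI there is no net growth.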

The first assay deals with SNB-75 CNS. The assay can be described thus: NCI-60 cell line screen, 48 h.
Take `Cc1ccccc1S(=O)(=O)OC1NS(=O)(=O)c2ccccc21` (stereo not given): the TGI was over 100 µM.
As for `O=C(Nc1ccc(Cl)cc1)c1cccc(NC2=C(Cl)C(=O)N(Cc3ccccc3)C2=O)c1`, the GI50 is 8.88 µM and the TGI is 25.1 µM.
In the same order, the values of `Cc1cc(/C=C/c2ccc3cc(N(C)C)ccc3[n+]2C)c(C)n1-c1ccccc1` are 0.211 µM and 1.9 µM.
`CC[C@H](Nc1ncnc2nc[nH]c12)c1oc2ccccc2c(=O)c1-c1cccc(F)c1`: the GI50 was 4.15 µM and the TGI turned out to be 56.1 µM.
Consider `COc1cc(NCc2ccc3oc(=O)c(-c4ccccc4)nc3c2)cc(OC)c1OC`, for which the TGI was over 10 µM.
As to `COc1ccc(-c2nnc(COc3ccc(NC(=O)Nc4cc(C(F)(F)F)cc(C(F)(F)F)c4)cc3F)o2)cc1`, the GI50 was 2.02 µM and the TGI was found to be 6.37 µM.
`COC1=CC(=O)C(C2CC(=O)c3c(O)cc(O)cc3O2)=CC1=O` (stereo not given) gave a TGI of 39.7 µM.
With `COc1cc(/C=C/c2cc(O)c(C(C)=O)c(O)c2)cc2c1O[C@]1(C)CC[C@@H](O)C(C)(C)[C@H]1C2`, the GI50 is 1.77 µM and the TGI worked out at 27 µM.
With `CC(C)C(C)/C=C\C(C)C1CCC2C3=CC=C4CC(O)CCC4(C)C3CCC21C` (stereo not given), the TGI was over 73.1 µM.

For a further assay, the system named is LOX IMVI melanoma. The assay can be described thus: NCI-60 cell line screen, 48 h.
As for `Fc1cc2[nH]ncc2c2c3c(c(-c4cn[nH]c4)nc12)CCCC3`, the GI50 was 0.486 µM and the TGI was found to be 2.4 µM.
With `C=C1C(=O)O[C@H]2[C@H]1CC/C(COC(=O)c1c[nH]c3ccccc13)=C\CC[C@@]1(C)O[C@@H]21`, the GI50 is 0.0471 µM and the TGI stood at 0.312 µM.
In the same order, the values of `CCN1CCN(c2nc(C)cc(N(CCNc3ccnc4cc(Cl)ccc34)Cc3ccc4c(c3)OCO4)n2)CC1` are 1.77 µM and 3.35 µM.
Turning to `CCN(CC)c1ccc(-c2cc(-c3cc(OC)c(OC)c(OC)c3)nc(N3CCOCC3)c2C#N)cc1`, the GI50 was 0.189 µM and the TGI worked out at 0.791 µM.
The corresponding values for `O=C(CCc1nnc2sc(-c3ccc(Cl)cc3Cl)nn12)c1nc2ncccc2[nH]1` are 1.69 µM and 3.08 µM.
As for `NS(=O)(=O)c1cc(Br)c(N=Nc2ccc(O)c3ncccc23)c(Br)c1`, the TGI was over 100 µM.
Take `COc1ccc(-c2nnc(COc3ccc(C(=O)/C=C/c4ccco4)cc3)o2)cc1`: the GI50 is 1.71 µM and the TGI was 3.18 µM.
Regarding `OCc1ccc(-c2ccc(-c3ccc(CO)s3)o2)s1`, the TGI stood at 79.7 µM.
`Cc1ccccc1S(=O)(=O)OC1NS(=O)(=O)c2ccccc21` (stereo not given) gave a TGI of over 100 µM.
For `O=C(Nc1ccc(Cl)cc1)c1cccc(NC2=C(Cl)C(=O)N(Cc3ccccc3)C2=O)c1`, the GI50 was 11.1 µM and the TGI is 23.2 µM.
In the case of `Cc1cc(/C=C/c2ccc3cc(N(C)C)ccc3[n+]2C)c(C)n1-c1ccccc1`, the GI50 is 0.121 µM and the TGI was found to be 0.884 µM.
On to `CC[C@H](Nc1ncnc2nc[nH]c12)c1oc2ccccc2c(=O)c1-c1cccc(F)c1`, for which the GI50 was 26.3 µM and the TGI was over 100 µM.
Consider `COc1cc(NCc2ccc3oc(=O)c(-c4ccccc4)nc3c2)cc(OC)c1OC`, for which the TGI is over 10 µM.
Take `COc1ccc(-c2nnc(COc3ccc(NC(=O)Nc4cc(C(F)(F)F)cc(C(F)(F)F)c4)cc3F)o2)cc1`: the GI50 is 1.95 µM and the TGI was 4.42 µM.
For the molecule `COC1=CC(=O)C(C2CC(=O)c3c(O)cc(O)cc3O2)=CC1=O` (stereo not given), the TGI came out at 30.9 µM.
Take `COc1cc(/C=C/c2cc(O)c(C(C)=O)c(O)c2)cc2c1O[C@]1(C)CC[C@@H](O)C(C)(C)[C@H]1C2`: the GI50 was 2.85 µM and the TGI was 13.3 µM.
`CC(C)C(C)/C=C\C(C)C1CCC2C3=CC=C4CC(O)CCC4(C)C3CCC21C` (stereo not given): the TGI was over 57.2 µM.

The next assay deals with UO-31 renal. Nature of the assay: NCI-60 cell line screen, 48 h.
As to `Fc1cc2[nH]ncc2c2c3c(c(-c4cn[nH]c4)nc12)CCCC3`, the GI50 is 0.896 µM and the TGI stood at 3.87 µM.
The corresponding values for `C=C1C(=O)O[C@H]2[C@H]1CC/C(COC(=O)c1c[nH]c3ccccc13)=C\CC[C@@]1(C)O[C@@H]21` are 0.165 µM and 0.313 µM.
On to `CCN1CCN(c2nc(C)cc(N(CCNc3ccnc4cc(Cl)ccc34)Cc3ccc4c(c3)OCO4)n2)CC1`, for which the GI50 is 1.36 µM and the TGI is 2.72 µM.
Turning to `CCN(CC)c1ccc(-c2cc(-c3cc(OC)c(OC)c(OC)c3)nc(N3CCOCC3)c2C#N)cc1`, the GI50 was 2.99 µM and the TGI is over 100 µM.
For the molecule `O=C(CCc1nnc2sc(-c3ccc(Cl)cc3Cl)nn12)c1nc2ncccc2[nH]1`, the GI50 is 1.13 µM and the TGI is 2.33 µM.
Consider `NS(=O)(=O)c1cc(Br)c(N=Nc2ccc(O)c3ncccc23)c(Br)c1`, for which the TGI was 89.6 µM.
With `COc1ccc(-c2nnc(COc3ccc(C(=O)/C=C/c4ccco4)cc3)o2)cc1`, the GI50 is 2.32 µM and the TGI was 6.69 µM.
`OCc1ccc(-c2ccc(-c3ccc(CO)s3)o2)s1`: the TGI was over 84.7 µM.
Still for that read-out and setting: the figure for `Cc1ccccc1S(=O)(=O)OC1NS(=O)(=O)c2ccccc21` (stereo not given) is over 100 µM.
With `O=C(Nc1ccc(Cl)cc1)c1cccc(NC2=C(Cl)C(=O)N(Cc3ccccc3)C2=O)c1`, the GI50 was 13 µM and the TGI worked out at 30.4 µM.
As to `Cc1cc(/C=C/c2ccc3cc(N(C)C)ccc3[n+]2C)c(C)n1-c1ccccc1`, the GI50 is 0.748 µM and the TGI came out at 4.3 µM.
As to `CC[C@H](Nc1ncnc2nc[nH]c12)c1oc2ccccc2c(=O)c1-c1cccc(F)c1`, the GI50 was 5.93 µM and the TGI is 58 µM.
For `COc1cc(NCc2ccc3oc(=O)c(-c4ccccc4)nc3c2)cc(OC)c1OC`, the TGI is over 10 µM.
Take `COc1ccc(-c2nnc(COc3ccc(NC(=O)Nc4cc(C(F)(F)F)cc(C(F)(F)F)c4)cc3F)o2)cc1`: the GI50 is 2.09 µM and the TGI came out at 7.84 µM.
Molecule `COC1=CC(=O)C(C2CC(=O)c3c(O)cc(O)cc3O2)=CC1=O` (stereo not given) came in with a TGI of 32.2 µM.
On to `COc1cc(/C=C/c2cc(O)c(C(C)=O)c(O)c2)cc2c1O[C@]1(C)CC[C@@H](O)C(C)(C)[C@H]1C2`, for which the GI50 was 3.22 µM and the TGI came to 65.5 µM.
Molecule `CC(C)C(C)/C=C\C(C)C1CCC2C3=CC=C4CC(O)CCC4(C)C3CCC21C` (stereo not given) showed a TGI of over 79 µM.
